{
  "source": "patent US20100010096A1",
  "about": "“Methadone chiral isolate as an improved pharmaceutical” (priority 2006, published 2010)",
  "target": "T1, IKr channel (Homo sapiens, UniProt Q12809)",
  "T1 construct": "expressed in transfected cells; host or cells: Xenopus oocytes (cRNA injection)",
  "T1 sequence (Q12809 whole entry)": "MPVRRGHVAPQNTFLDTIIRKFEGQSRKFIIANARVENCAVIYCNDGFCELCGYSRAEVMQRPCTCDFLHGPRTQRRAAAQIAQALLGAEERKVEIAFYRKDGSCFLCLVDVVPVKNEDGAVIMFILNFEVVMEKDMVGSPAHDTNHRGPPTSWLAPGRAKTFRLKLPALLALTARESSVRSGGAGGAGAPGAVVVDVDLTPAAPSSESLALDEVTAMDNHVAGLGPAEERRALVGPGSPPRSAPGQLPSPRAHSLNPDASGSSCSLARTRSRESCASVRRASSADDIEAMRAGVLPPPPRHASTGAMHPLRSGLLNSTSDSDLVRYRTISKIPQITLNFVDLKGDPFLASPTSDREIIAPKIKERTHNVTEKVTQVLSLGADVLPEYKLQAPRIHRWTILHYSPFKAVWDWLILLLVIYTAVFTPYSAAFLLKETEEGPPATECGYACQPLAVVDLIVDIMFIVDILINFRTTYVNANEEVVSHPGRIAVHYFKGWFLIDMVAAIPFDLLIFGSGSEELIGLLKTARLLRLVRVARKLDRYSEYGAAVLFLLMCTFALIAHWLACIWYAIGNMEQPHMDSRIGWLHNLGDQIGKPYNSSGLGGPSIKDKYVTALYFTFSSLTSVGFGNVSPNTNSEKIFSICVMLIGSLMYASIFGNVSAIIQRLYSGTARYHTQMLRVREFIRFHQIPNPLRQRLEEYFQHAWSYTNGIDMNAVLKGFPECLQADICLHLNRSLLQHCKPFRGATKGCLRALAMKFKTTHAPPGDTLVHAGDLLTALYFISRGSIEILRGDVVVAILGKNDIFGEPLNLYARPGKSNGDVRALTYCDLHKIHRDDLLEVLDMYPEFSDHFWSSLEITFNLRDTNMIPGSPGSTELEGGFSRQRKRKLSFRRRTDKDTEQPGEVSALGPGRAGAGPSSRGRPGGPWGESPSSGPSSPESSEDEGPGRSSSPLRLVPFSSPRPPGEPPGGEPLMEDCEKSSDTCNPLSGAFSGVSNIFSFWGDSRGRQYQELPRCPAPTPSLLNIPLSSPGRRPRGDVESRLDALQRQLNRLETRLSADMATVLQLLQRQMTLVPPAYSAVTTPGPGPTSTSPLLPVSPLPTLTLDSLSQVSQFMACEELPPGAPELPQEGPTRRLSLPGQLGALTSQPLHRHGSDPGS",
  "experiment": "IKr inhibition in xenopus oocytes overexpressing the IKr channel, two electrode voltage clamp",
  "assay_type": "cell-based",
  "details": "methadone racemate 0.01 to 3 mM, FIG. 3",
  "data": [
    {"smiles": "CCC(=O)C(CC(C)N(C)C)(c1ccccc1)c1ccccc1", "note": "(racemic) [methadone]", "values": [
      {"measurement": "inhibition of the IKr current", "result": "dose related inhibition of the IKr current"}
    ]}
  ]
}
